Experiments:
[1] = test system: fatty acid desaturation index (FADI), plasma; assay: Fatty acid desaturation index (FADI) ratios in plasma, 12-week placebo-controlled study; format: in vivo, human; conditions: 4 g/day, 12 weeks, placebo-adjusted, from baseline
Method: (§1) A multi-center, placebo-controlled, randomized, double-blind, 12-week study was performed to evaluate the efficacy and safety of >96% E-EPA in patients with fasting triglyceride levels ≥200 mg/dl and <500 mg/dl despite statin therapy (the mean of two qualifying entry values needed to be ≥185 mg/dl and at least one of the values needed to be ≥200 mg/dl). The primary objective of the study was to determine the efficacy of >96% E-EPA 2 g daily and 4 g daily, compared to placebo, in lowering fasting TG levels in patients with high risk for cardiovascular disease and with fasting TG levels ≥200 mg/dl and <500 mg/dl, despite treatment to LDL-C goal on statin therapy.
The population for this study was men and women >18 years of age with a body mass index ≤45 kg/m^2 with fasting TG levels greater than or equal to 200 mg/dl and less than 500 mg/dl and on a stable does of statin therapy (with or without ezetimibe). The statin was atorvostatin, rosuvastatin or simvastatin. The dose of statin must have been stable for ≥4 weeks prior to the LDL-C/TG baseline qualifying measurement for randomization. The statin dose was optimized such that the patients are at their LDL-C goal at the LDL-C/TG baseline qualifying measurements. The same statin at the same dose was continued until the study ended. […]
(§2) The primary efficacy variable for the double-blind treatment period was percent change in TG from baseline to Week 12 endpoint. The secondary efficacy variables for the double-blind treatment period included the following: • Percent changes in total cholesterol (TC), high-density lipoprotein cholesterol (HDL-C), LDL-C, calculated non-HDL-C, and very low-density lipoprotein cholesterol (VLDL-C) from baseline to Week 12 endpoint; • Percent change in very low-density lipoprotein TG from baseline to Week 12; • Percent changes in apolipoprotein A-I (apo A-I), apolipoprotein B (apo B), and apo A-I/apo B ratio from baseline to Week 12; • Percent changes in lipoprotein(a) from baseline to Week 12; • Percent changes in LDL particle number and size, measured by nuclear magnetic resonance, from baseline to Week 12; • Percent change in remnant-like particle cholesterol from baseline to Week 12; • Percent change in oxidized LDL from baseline to Week 12; • Changes in FPG and HbA1c from baseline to Week 12; • Change in insulin resistance, as assessed by the homeostasis model index insulin resistance, from baseline to Week 12; • Percent change in lipoprotein associated phospholipase A2 (Lp-PLA2) from baseline to Week 12; • Change in intracellular adhesion molecule-1 from baseline to Week 12; • Change in interleukin-2 from baseline to Week 12; • Change in plasminogen activator inhibitor-1 from baseline to Week 12. […]

[2] = test system: Lipoprotein Particle Sizes; assay: Lipoprotein particle sizes, 12-week double-blind placebo-controlled study of >96% E-EPA in statin-treated patients; format: in vivo, human; conditions: 12 weeks; for LDL particle size, % Δ / HDL particle size, % Δ / VLDL particle size, % Δ: median change from baseline; for LDL particle size, End / HDL particle size, End / VLDL particle size, End: median
Method: as §1
The population for this study was men and women >18 years of age with a body mass index ≤45 kg/m^2 with fasting TG levels greater than or equal to 200 mg/dl and less than 500 mg/dl and on a stable does of statin therapy (with or without ezetimibe). The statin was atorvostatin, rosuvastatin or simvastatin. The dose of statin must have been stable for ≥4 weeks prior to the LDL-C/TG baseline qualifying measurement for randomization. The statin dose was optimized such that the patients are at their LDL-C goal at the LDL-C/TG baseline qualifying measurements. The same statin at the same dose was continued until the study ended.
Approximately 702 patients were randomized at approximately 80 centers in the U.S. The study was a 18- to 20-week, Phase 3, multi-center study consisting of 2 study periods: (1) A 6- to 8-week screening period that included a diet and lifestyle stabilization, a non-statin lipid-altering treatment washout, and an LDL-C and TG qualifying period and (2) A 12-week, double-blind, randomized, placebo-controlled treatment period.
After confirmation of qualifying fasting LDL-C and TG values, eligible patients entered a 12-week, randomized, double-blind treatment period. At Visit 4 (Week 0), patients were randomly assigned to 1 of the following treatment groups: • >96% E-EPA 2 g daily, • >96% E-EPA 4 g daily, or • Placebo.
During the double-blind treatment period, patients were to take 2 capsules (>96% E-EPA or matching placebo) in the morning and 2 capsules in the evening for a total of 4 capsules per day. • Patients in the >96% E-EPA 2 g/day treatment group received 1>96% E-EPA 1 g capsule and 1 matching placebo capsule in the morning and in the evening. • Patients in the >96% E-EPA 4 g/day treatment group received 2>96% E-EPA 1 g capsules in the morning and evening.
as §2

[3] = listed as Ethyl Eicosapentaenoate
[4] = 4 g/day, Hodges-Lehmann median, listed as E-EPA

For `CC/C=C\C/C=C\C/C=C\C/C=C\C/C=C\CCCC(=O)OCC` [ethyl eicosapentaenoate, all-cis eicosa-5,8,11,14,17-pentaenoic acid ethyl ester], the “FADI-16 (Palmitoleic acid/Palmitic acid, C16:1/C16:0) % Change, Plasma” value [1] was “significantly reduced”, the “FADI-18 (Oleic acid/Stearic Acid, C18:1/C18:0) % Change, Plasma” value [1] was “significantly reduced” and the “FADI-16 (Palmitoleic acid/Palmitic acid, C16:1/C16:0) % Change, Plasma” value [1, 3] was −6.8%. For the same compound, the “FADI-18 (Oleic acid/Stearic Acid, C18:1/C18:0) % Change, Plasma” value [1, 3] was −9.8%, the “HDL particle size, Placebo-Adjusted Median Change from Baseline 2 g/d, %” value ([2]; 2 g/day, Hodges-Lehmann median) was 0.0% and the “LDL particle size, Placebo-Adjusted Median Change from Baseline 2 g/d, %” value ([2]; 2 g/day, Hodges-Lehmann median) was “+0.5%”. The “VLDL particle size, Placebo-Adjusted Median Change from Baseline 2 g/d, %” value ([2]; 2 g/day, Hodges-Lehmann median) was −4.8%, the “LDL particle size, % Δ” value ([2]; 2 g/day, n = 221) was “+0.5%” and the “HDL particle size, % Δ” value ([2]; 2 g/day, n = 222) was 0.0%. The “VLDL particle size, % Δ” value ([2]; 2 g/day, n = 222) was −5.0%, the “LDL particle size, End” value ([2]; 2 g/day, n = 221) was 20.0 nm and the “HDL particle size, End” value ([2]; 2 g/day, n = 222) was 8.6 nm. For the same compound, the “VLDL particle size, End” value ([2]; 2 g/day, n = 222) was 53.2 nm, the “HDL particle size, Placebo-Adjusted Median Change from Baseline 4 g/d, %” value ([2]; 4 g/day, Hodges-Lehmann median) was “significantly reduced” and the “LDL particle size, Placebo-Adjusted Median Change from Baseline 4 g/d, %” value ([2]; 4 g/day, Hodges-Lehmann median) was “modest but significant increase”. For the same compound, the “VLDL particle size, Placebo-Adjusted Median Change from Baseline 4 g/d, %” value ([2]; 4 g/day, Hodges-Lehmann median) was “significantly reduced”, the “HDL particle size, Placebo-Adjusted Median Change from Baseline 4 g/d, %” value [2, 4] was −1.2% and the “LDL particle size, Placebo-Adjusted Median Change from Baseline 4 g/d, %” value [2, 4] was “+0.5%”. For the same compound, the “VLDL particle size, Placebo-Adjusted Median Change from Baseline 4 g/d, %” value [2, 4] was −7.7%, the “LDL particle size, % Δ” value ([2]; 4 g/day, n = 215) was “+0.5%” and the “HDL particle size, % Δ” value ([2]; 4 g/day, n = 216) was −1.1%. The “VLDL particle size, % Δ” value ([2]; 4 g/day, n = 216) was −8.1%, the “LDL particle size, End” value ([2]; 4 g/day, n = 215) was 20.0 nm and the “HDL particle size, End” value ([2]; 4 g/day, n = 216) was 8.6 nm. The “VLDL particle size, End” value ([2]; 4 g/day, n = 216) was 51.2 nm.

Reference: US20210069145A1, “COMPOSITIONS AND METHODS FOR REDUCING A FATTY ACID DESATURATION INDEX IN A SUBJECT IN NEED THEREOF” (Amarin Pharmaceuticals Ireland Limited, priority 2013, published 2021)
